Here are results for 20 molecules from patent US10287293B2, “Bicyclic heterocyclic compounds as PDE2 inhibitors” (Merck Sharp & Dohme Corp., priority 2015, dated 2019).

In one series the target is human PDE2A1 (Homo sapiens (Human), UniProt O00408). As to the kind of experiment: PDE selectivity panel IMAP FP assay, human PDE2. Particulars: FAM cAMP 50 nM containing 1000 nM cGMP. The format is biochemical. As for the experimental part: Selectivity for PDE2, as compared to other PDE families, was assessed using the IMAP® technology. Human PDE10A2 enzyme was prepared from cytosolic fractions of transiently transfected HEK cells. […] The enzyme and the substrate were then added to the assay plates in two consecutive additions of 10 μL and then shaken to mix. The reaction was allowed to proceed at room temperature for 60 minutes. […] The enzymatic reaction was stopped by addition of 60 μL of the binding solution to each well of the assay plate. The plates were sealed and shaken for 10 seconds. The plates were incubated at room temperature for one hour, then the parallel and perpendicular fluorescence was measured using a Tecan Genios Pro plate reader (Tecan, Switzerland). […] The intrinsic PDE2 inhibitory activity of a compound which may be used in accordance with the present invention may be determined by these assays. […] Additional data is provided in the following Examples.
Sequence of human PDE2A1 (O00408 other isoform, or with tags, fused parts or gaps): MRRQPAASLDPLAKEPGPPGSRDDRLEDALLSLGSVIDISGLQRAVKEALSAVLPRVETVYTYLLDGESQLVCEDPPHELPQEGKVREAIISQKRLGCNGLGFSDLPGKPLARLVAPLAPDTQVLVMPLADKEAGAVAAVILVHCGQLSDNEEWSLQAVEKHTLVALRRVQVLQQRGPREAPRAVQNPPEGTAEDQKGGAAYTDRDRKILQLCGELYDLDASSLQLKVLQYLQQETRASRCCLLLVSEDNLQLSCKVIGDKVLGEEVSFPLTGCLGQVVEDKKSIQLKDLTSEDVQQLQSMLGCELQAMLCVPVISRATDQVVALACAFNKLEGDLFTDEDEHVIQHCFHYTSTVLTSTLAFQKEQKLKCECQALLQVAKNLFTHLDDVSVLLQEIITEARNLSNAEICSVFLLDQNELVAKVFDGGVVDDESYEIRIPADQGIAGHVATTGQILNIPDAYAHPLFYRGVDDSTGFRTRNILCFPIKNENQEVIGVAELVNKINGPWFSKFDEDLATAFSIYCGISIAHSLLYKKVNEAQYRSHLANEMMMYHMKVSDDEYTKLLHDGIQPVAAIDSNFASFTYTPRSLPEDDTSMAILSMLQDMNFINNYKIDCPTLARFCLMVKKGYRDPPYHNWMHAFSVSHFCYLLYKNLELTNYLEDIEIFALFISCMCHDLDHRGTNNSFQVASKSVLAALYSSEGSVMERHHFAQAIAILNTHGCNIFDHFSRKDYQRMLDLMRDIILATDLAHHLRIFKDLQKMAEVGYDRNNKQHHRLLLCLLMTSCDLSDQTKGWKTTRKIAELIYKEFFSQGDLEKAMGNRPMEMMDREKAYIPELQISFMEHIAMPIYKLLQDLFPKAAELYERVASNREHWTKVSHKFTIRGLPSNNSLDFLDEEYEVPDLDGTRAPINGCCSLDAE

The target of a further series is Rhesus PDE2A3 (Macaca mulatta, UniProt B3VTJ2). As to the kind of experiment: PDE2 fluorescence polarization (IMAP FP) inhibition assay, rhesus enzyme. The format is biochemical, rhesus macaque. Particulars: FAM-cAMP 50 nM substrate, cGMP 1 uM activator. For orientation: Polarisation of emitted light reports the rotation of a fluorescent probe.
Sequence of Rhesus PDE2A3 (B3VTJ2 1-941): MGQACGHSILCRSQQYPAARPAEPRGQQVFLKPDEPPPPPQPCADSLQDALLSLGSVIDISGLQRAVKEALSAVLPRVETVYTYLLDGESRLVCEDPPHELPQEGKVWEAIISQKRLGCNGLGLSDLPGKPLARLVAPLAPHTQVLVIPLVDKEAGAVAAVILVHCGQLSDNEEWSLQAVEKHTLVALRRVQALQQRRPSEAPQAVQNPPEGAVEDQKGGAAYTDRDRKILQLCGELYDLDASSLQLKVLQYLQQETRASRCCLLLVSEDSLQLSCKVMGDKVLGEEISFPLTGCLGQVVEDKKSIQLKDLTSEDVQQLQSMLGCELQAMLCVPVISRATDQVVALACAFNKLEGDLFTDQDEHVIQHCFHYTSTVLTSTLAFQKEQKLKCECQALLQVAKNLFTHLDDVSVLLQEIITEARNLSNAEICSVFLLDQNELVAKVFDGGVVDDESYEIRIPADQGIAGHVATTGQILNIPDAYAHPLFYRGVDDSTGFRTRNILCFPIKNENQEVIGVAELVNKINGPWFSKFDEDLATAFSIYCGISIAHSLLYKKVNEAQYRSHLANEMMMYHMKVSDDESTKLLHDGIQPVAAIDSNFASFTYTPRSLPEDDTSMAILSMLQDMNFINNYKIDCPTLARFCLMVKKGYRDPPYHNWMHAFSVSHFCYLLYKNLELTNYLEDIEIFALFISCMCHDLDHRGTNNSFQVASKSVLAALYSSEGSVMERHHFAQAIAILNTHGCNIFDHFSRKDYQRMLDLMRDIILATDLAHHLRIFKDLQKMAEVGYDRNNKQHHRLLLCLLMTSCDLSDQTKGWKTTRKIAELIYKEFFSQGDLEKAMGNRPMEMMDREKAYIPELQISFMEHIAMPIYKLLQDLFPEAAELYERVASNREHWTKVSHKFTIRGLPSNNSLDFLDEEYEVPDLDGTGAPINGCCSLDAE
The subject of another series is other PDE isoforms. Particulars: literature report; cited from earlier work.
The conditions of series [1]: literature report; cited from earlier work.

Take `Cc1nn2c(C(C)c3ccc(OC(F)(F)F)cc3)nc(CO)c2c(=O)[nH]1` (single isomer, unassigned) [Example 32, (R)- or (S)-5-(hydroxymethyl)-2-methyl-7-(1-(4-(trifluoromethoxy)phenyl)ethyl)imidazo[5,1-f][1,2,4]triazin-4(3H)-one]: the affinity on human PDE2A1 corresponds to a Ki of 0.0625 µM. This counts as double-digit nanomolar.

Consider `Cc1nn2c([C@@H](C)c3ccc(C(F)(F)F)cc3)nc(C)c2c(=O)[nH]1` (single isomer, unassigned) [Example 26], for which the Ki at Rhesus PDE2A3 came out at 0.779 µM. In other words, the sub-micromolar range. Regarding `Cc1nc2c([C@@H](C)c3ccc(C(F)(F)F)cc3)nn([C@H](C)CO)c2c(=O)[nH]1` (single isomer, unassigned) [Example 21, 1-((R)-1-Hydroxypropan-2-yl)-5-methyl-3-((S)-1-(4-(trifluoromethyl)phenyl)ethyl)-1,6-dihydro-7H-pyrazolo[4,3-d]pyrimidin-7-one or 1-((R)-1-Hydroxypropan-2-yl)-5-methyl-3-((R)-1-(4-(trifluoromethyl)phenyl)ethyl)-1,6-dihydro-7H-pyrazolo[4,3-d]pyrimidin-7-one], the Ki at human PDE2A1 was 0.239 µM.

As for `Cc1nn2c(C(C)c3ccc(C(F)(F)F)c(F)c3)nc(CO)c2c(=O)[nH]1` (single isomer, unassigned) [Example 34, (R)- or (S)-7-(1-(3-fluoro-4-(trifluoromethyl)phenyl)ethyl)-5-(hydroxymethyl)-2-methylimidazo[5,1-f][1,2,4]triazin-4(3H)-one], the Ki at human PDE2A1 was determined as 0.216 µM. This Ki and that of the molecule before are within 1.5-fold of each other.

As for `Cc1nn2c(C(C)c3ccc(C(F)(F)F)cc3F)nc(CO)c2c(=O)[nH]1` (single isomer, unassigned) [Example 31, (S)- or (R)-7-(1-(2-fluoro-4-(trifluoromethyl)phenyl)ethyl)-5-(hydroxymethyl)-2-methylimidazo[5,1-f][1,2,4]triazin-4(3H)-one], the Ki at human PDE2A1 stood at 0.0008 µM.

`Cc1nn2c(C(C)c3ccc(C(F)(F)F)cc3)nc(CC#N)c2c(=O)[nH]1` (stereo not shown) [Example 38, 2-(2-methyl-4-oxo-7-(1-(4-(trifluoromethyl)phenyl)ethyl)-3,4-dihydroimidazo-[5,1-f][1,2,4]triazin-5-yl)acetonitrile] gave a Ki on human PDE2A1 of 0.0061 µM. Still for that read-out and setting: for `Cc1nc2c([C@@H](C)c3ccc(C(F)(F)F)cc3)nn([C@H](C)CO)c2c(=O)[nH]1` (single isomer, unassigned) [Example 22, 1-((R)-1-Hydroxypropan-2-yl)-5-methyl-3-((S)-1-(4-(trifluoromethyl)phenyl)ethyl)-1,6-dihydro-7H-pyrazolo[4,3-d]pyrimidin-7-one or 1-((R)-1-Hydroxypropan-2-yl)-5-methyl-3-((R)-1-(4-(trifluoromethyl)phenyl)ethyl)-1,6-dihydro-7H-pyrazolo[4,3-d]pyrimidin-7-one] the value was 0.0156 µM. Take `Cc1nn2c([C@@H](C)c3ccc(C(F)(F)F)cc3)nc(C)c2c(=O)[nH]1` (single isomer, unassigned) [Example 27]: the values for the Ki at Rhesus PDE2A3 and on human PDE2A1 were 0.021 µM and 0.0172 µM, respectively. On to `COc1ccc(Cc2nn3c([C@@H](CCCc4ccccc4)[C@@H](C)O)nc(C)c3c(=O)[nH]2)cc1OC` [Bay 60-7550], for which the “potency at other PDE isoforms” value with other PDE isoforms is “significant potency”. Also, in series [1], the brain penetration entry is recorded as “limited”. In turn, `Cc1nc2c(C(C)c3cccc(C(F)(F)F)c3F)nn(CCO)c2c(=O)[nH]1` (single isomer, unassigned) [Example 9, (R)- or (S)-3-(1-(2-Fluoro-3-(trifluoromethyl)phenyl)ethyl)-1-(2-hydroxyethyl)-5-methyl-1,6-dihydro-7H-pyrazolo[4,3-d]pyrimidin-7-one] registered a Ki on human PDE2A1 of 2.8 µM. This counts as single-digit micromolar.

As for `Cc1nn2c(C(C)c3ccc(C4(C)CC4)cc3)nc(CO)c2c(=O)[nH]1` (single isomer, unassigned) [Example 36, (R)- or (S)-5-(hydroxymethyl)-2-methyl-7-(1-(4-(1-methylcyclopropyl)phenyl)ethyl)imidazo[5,1-f][1,2,4]triazin-4(3H)-one], on human PDE2A1, the Ki amounted to 0.109 µM. At human PDE2A1, `Cc1nn2c([C@@H](C)c3ccc(C(F)(F)F)cc3)nc(CCO)c2c(=O)[nH]1` (single isomer, unassigned) [Example 39] yielded a Ki of 0.0903 µM.

Molecule `Cc1nc2c(C(C)c3cccc(C(F)(F)F)c3F)nn(CCO)c2c(=O)[nH]1` (single isomer, unassigned) [Example 10, (S)- or (R)-3-(1-(2-Fluoro-3-(trifluoromethyl)phenyl)ethyl)-1-(2-hydroxyethyl)-5-methyl-1,6-dihydro-7H-pyrazolo[4,3-d]pyrimidin-7-one] returned a Ki at human PDE2A1 of 0.206 µM.

Take `Cc1nn2c([C@@H](C)c3ccc(C(F)(F)F)cc3)nc(CO)c2c(=O)[nH]1` (single isomer, unassigned) [Example 29]: on human PDE2A1, the affinity, expressed as Ki, was 0.0012 µM. Compared with the last molecule, the Ki is about 170-fold lower.

Turning to `Cc1nn2c(C(C)c3ccc(C(F)(F)F)cc3F)nc(CO)c2c(=O)[nH]1` (single isomer, unassigned) [Example 30, (R)- or (S)-7-(1-(2-fluoro-4-(trifluoromethyl)phenyl)ethyl)-5-(hydroxymethyl)-2-methylimidazo[5,1-f][1,2,4]triazin-4(3H)-one], at human PDE2A1, the affinity corresponds to a Ki of 0.2 µM. Against the preceding molecule, the Ki is about 170-fold higher. At human PDE2A1, `Cc1nc2c([C@@H](C)c3ccc(C(F)(F)F)cc3)nn([C@@H](C)CO)c2c(=O)[nH]1` (single isomer, unassigned) [Example 23, 1-((S)-1-Hydroxypropan-2-yl)-5-methyl-3-((S)-1-(4-(trifluoromethyl)phenyl)ethyl)-1,6-dihydro-7H-pyrazolo[4,3-d]pyrimidin-7-one or 1-((S)-1-Hydroxypropan-2-yl)-5-methyl-3-((R)-1-(4-(trifluoromethyl)phenyl)ethyl)-1,6-dihydro-7H-pyrazolo[4,3-d]pyrimidin-7-one] yielded a Ki of 0.142 µM.

For the molecule `Cc1nn2c([C@@H](C)c3ccc(C(F)(F)F)cc3)nc(CO)c2c(=O)[nH]1` (single isomer, unassigned) [Example 28], the Ki on human PDE2A1 turned out to be 0.298 µM. As to `Cc1nn2c(C(C)c3ccc(C(F)(F)F)c(F)c3)nc(CO)c2c(=O)[nH]1` (single isomer, unassigned) [Example 35, (S)- or (R)-7-(1-(3-fluoro-4-(trifluoromethyl)phenyl)ethyl)-5-(hydroxymethyl)-2-methylimidazo[5,1-f][1,2,4]triazin-4(3H)-one], the Ki at human PDE2A1 turned out to be 0.001 µM. Compared with the last molecule, the Ki is about 300-fold lower.

At human PDE2A1, `Cc1nn2c(C(C)c3ccc(OC(F)(F)F)cc3)nc(CO)c2c(=O)[nH]1` (single isomer, unassigned) [Example 33, (S)- or (R)-5-(hydroxymethyl)-2-methyl-7-(1-(4-(trifluoromethoxy)phenyl)ethyl)imidazo[5,1-f][1,2,4]triazin-4(3H)-one] showed a Ki of 0.0012 µM. On the same count and under the same terms, to `Cc1nn2c(C(C)c3ccc(C4(C)CC4)cc3)nc(CO)c2c(=O)[nH]1` (single isomer, unassigned) [Example 37, (S)- or (R)-5-(hydroxymethyl)-2-methyl-7-(1-(4-(1-methylcyclopropyl)phenyl)ethyl)imidazo[5,1-f][1,2,4]triazin-4(3H)-one] belongs 0.0004 µM.

For orientation: Ki means a measure of affinity in units of concentration, obtained from inhibition or displacement. Low readings indicate tighter binding, high ones weaker binding.
